# In article PMC3718762, “Differential Disruption of EWS-FLI1 Binding by DNA-Binding Agents” (PLoS ONE, 2013):
# Starred links: 1 amine or outer side, 2 acyl side, 3 side chain; linkers in the order of their positions; H or OH if unused. Positions of bridges follow the written chain, without caps; N, C: chain ends. Non-standard residues stand in square brackets, D forms with d. Residues, ends and D or L forms follow the SMILES beside them. Chains are numbered I, II in the order given. Actinocin(9to1) = Cc1c2oc3c(C)ccc(C(=O)[*:1])c3nc-2c(C(=O)[*:2])c(N)c1=O; NMeV = CN[C@H](C(=O)O)C(C)C; Sar = CNCC(=O)O
# Legend:
# EWS-FLI1-induced genes = assay: Gene expression profiling with GSEA in A673 cells; type: cell-based; settings: 5 nM, 24 hours
# Description: Ewing sarcoma A673 cells at 65% confluence were treated in duplicate with DMSO (0.2%) or 5 nM actinomycin D for 24 hours. RNA was extracted with an Absolutely RNA kit. 100 ng of total RNA was hybridized to Affymetrix Gene 1.0 ST Arrays (DFCI Microarray Core Facility). Array quality was verified before background correction, RMA normalization and log2 conversion using the Bioconductor R package affy (URL: http://www.bioconductor.org). Differential gene expression was determined using the limma Bioconductor package. Genes with a fold-change >2 and Benjamini-Hochberg-corrected p-value <0.01 were retained for further consideration. Gene expression data have been deposited in GEO (GSE45414) and can be accessed at URL: http://www.ncbi.nlm.nih.gov/geo/query/acc.cgi?acc=GSE45414.
# Consistent with the enrichment of E2F targets among EWS-FLI1-induced genes we noted in the shRNA study above (Figure 3A), we also found down-regulation of this class of signatures in A673 cells treated with low-dose actinomycin D (Figure 3B, black circles).
# [1] = test system: RPS26 and TP53 transcripts; assay: Quantitative RT-PCR of control transcripts in A673 cells; type: cell-based; settings: actinomycin D treatment (Figure 2F)
# Description: (§1) Duplicate wells of A673 cells were treated overnight with different concentration of actinomycin D. RNA was extracted with absolutely mRNA purification kit from Stratagene. 0.5 µg total RNA was mixed with 1 µl iScript Reverse Transcriptase, 10 µl of 2× RT-PCR reaction mix for probes from Bio-Rad, 1 µl of NR0B1, RPS26 and TP53 probes from Life Technologies and H2O up to 20 µl total volume. RT-PCR was performed in an iCycler iQ with 50°C for 10 minutes for one cycle; 95°C, 15 seconds, 60°C 40 seconds for 40 cycles. Each RNA sample was technically duplicated, and relative abundance was calculated by the delta Ct method.
# NR0B1 mRNA = assay: Quantitative RT-PCR of endogenous NR0B1 mRNA in A673 cells; type: cell-based
# Description: as §1
# NR0B1 promoter = assay: NR0B1-Luc firefly luciferase reporter assay in A673 cells; type: cell-based, human; settings: Homo sapiens, A673, 16 h, read-out: IC50 for inhibition of NR0B1 activity
# From the text: The NR0B1 promoter was amplified from human genomic DNA using the 5′ primer- […] and 3′ primer - […]. NR0B1 promoter amplicon was cloned into the NheI and HindIII sites in the pGL.3Basic vector. The 5′ primer-[…] was used to amplify a truncated NR0B1 promoter in which the entire EWS-FLI1 binding region (GGAA repeats) was deleted to construct pGL.3b-NR0B1del. All constructs were confirmed by sequencing. All other plasmids were previously described.
# Ewing sarcoma A673 cells at 50% confluence in 100 mm dishes were transfected with both 5.8 µg of pGL.3b-NR0B1 and 0.2 µg of pGL.3b-Ubc-RL reporter plasmids as above. Eight hours post-transfection, cells were trypsinized and 600 ul (2×10^5) of cells were added to each well of 24 well plates. 5 µl of different concentration of compounds or DMSO control were added to each well. Each treatment was performed in triplicate. Cells were incubated for 16 hours, then cells were lysed in 100 µl of lysis buffer and 10 µl of cell lysate was used for the dual luciferase assay. Renilla luciferase activity was used as an internal control for normalization of nonspecific transcriptional inhibition or cytotoxic effects. Experiments were repeated three times. IC50 values were calculated using Prism (Graphpad).
# To determine the effect of compounds on EWS-FLI1 activity in cells, we used a reporter assay comprised of the NR0B1 promoter, a prototypical EWS-FLI1-regulated gene, driving expression of firefly luciferase. Renilla luciferase driven by the Ubiquitin C promoter (UbC-RL) was used as an internal control. Confirming prior studies, the NR0B1 promoter was verified to be highly responsive to EWS-FLI1, whereas the UbC promoter activity was not subject to regulation by EWS-FLI1 (Figure S1).
# EWS-FLI1 = assay: AlphaScreen proximity assay, binding of recombinant EWS-FLI1 to cognate DNA oligo
# [2] = target: T1, EWS-FLI1 binding to the NR0B1 promoter (Homo sapiens, UniProt Q01543+Q01844); assay: ChIP-qPCR, EWS-FLI1 binding to NR0B1 promoter in A673 cells; type: cell-based; settings: 5 nM, 4 hrs, anti-FLI1 ChIP, DMSO 31-fold, p = 0.0018
# T1 construct: EWS (EWSR1, Q01844) N-terminal portion, fusion partner; endogenous in cells; host or cells: A673 Ewing sarcoma cells
# T1 sequence (Q01844+Q01543 with tags, fused parts or gaps): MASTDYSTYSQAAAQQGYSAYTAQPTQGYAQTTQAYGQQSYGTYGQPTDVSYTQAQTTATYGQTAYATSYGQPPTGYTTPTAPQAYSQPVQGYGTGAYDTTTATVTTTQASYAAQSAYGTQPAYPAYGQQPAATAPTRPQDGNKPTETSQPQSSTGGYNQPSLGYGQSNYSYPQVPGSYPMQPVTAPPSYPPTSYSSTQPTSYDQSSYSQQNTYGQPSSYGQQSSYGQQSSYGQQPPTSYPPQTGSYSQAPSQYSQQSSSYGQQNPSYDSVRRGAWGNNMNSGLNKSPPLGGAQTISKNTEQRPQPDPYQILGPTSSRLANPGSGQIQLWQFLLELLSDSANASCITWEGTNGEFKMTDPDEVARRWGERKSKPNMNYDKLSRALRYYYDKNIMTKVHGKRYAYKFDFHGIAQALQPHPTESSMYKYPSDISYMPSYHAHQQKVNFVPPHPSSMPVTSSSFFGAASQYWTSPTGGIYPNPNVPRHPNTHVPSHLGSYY
# Description: (§2) ChIP-qPCR was performed as previously described. Briefly, cells were treated with compounds for 4 hrs, then crosslinked, lysed, and chromatin fragmented. After ChIP, quantitative PCR was used to quantify NR0B1, p53, and RPS26 loci, and fold enrichment was determined by the formula: Fold enrichment = 2χ(Input Ct-ChIP Ct)/2χ(Input Ct-IgG Ct).
# (§3) We used chromatin immunoprecipitation coupled with quantitative PCR (ChIP-qPCR) to assess effects of actinomycin D on EWS-FLI1 binding to chromatin in cells. A673 cells were treated with either actinomycin D at 5 nM, or vehicle. After crosslinking, chromatin was sheared and EWS-FLI1-DNA complexes were immunoprecipitated using an anti-FLI1 antibody. We used primers flanking the EWS-FLI1-binding site in the promoter of the NR0B1 gene to quantify binding of EWS-FLI1. We used RPS26 and TP53 as control loci since neither are bound by EWS-FLI [15] and we have shown that RPS26 and TP53 transcript levels were unaffected by actinomycin D treatment (Figure 2F). Without actinomycin D treatment, binding of EWS-FLI1 to the NR0B1 promoter was enriched 31-fold by comparison to IgG controls (Figure 4A, DMSO). Treatment of cells with actinomycin D reduced binding of EWS-FLI1 to the NR0B1 promoter to 4-fold (p = 0.0018; Figure 4A).
# RPS26 and TP53 loci = assay: ChIP-qPCR, control loci in A673 cells; type: cell-based; settings: 5 nM, 4 hrs, anti-FLI1 ChIP
# Description: as §2, §3
structure (smiles),measurement,setting,value
"Cc1c2oc3c(C)ccc(C(=O)N[C@@H]4C(=O)N[C@H](C(C)C)C(=O)N5CCC[C@H]5C(=O)N(C)CC(=O)N(C)[C@@H](C(C)C)C(=O)O[C@@H]4C)c3nc-2c(C(=O)N[C@@H]2C(=O)N[C@H](C(C)C)C(=O)N3CCC[C@H]3C(=O)N(C)CC(=O)N(C)[C@@H](C(C)C)C(=O)O[C@@H]2C)c(N)c1=O [Actinomycin D] (I: T[dV]P[Sar][NMeV] / II: T[dV]P[Sar][NMeV]; ester I:1-I:C, II:1-II:C; linker I:N-II:N via Actinocin(9to1))",Expression of EWS-FLI1-induced genes (GSEA),EWS-FLI1-induced genes,repressed to a significant degree
same,RPS26 and TP53 transcript levels,[1],unaffected
same,Expression of NR0B1 and control transcripts,"NR0B1 mRNA; A673 cells, overnight, 50 nM",similarly attenuated
same,Expression of endogenous NR0B1 mRNA,"NR0B1 mRNA; A673 cells, overnight, 5 -10 nM, versus control transcripts p53 and RPS26",preferentially attenuated
same,Window between preferential effect on EWS-FLI1 and global inhibition of transcription,NR0B1 mRNA; in cells,< 10 fold
same,IC50,NR0B1 promoter,0.0028 µM
same,Disruption of EWS-FLI1 binding compared with p53 binding in the parallel assays,EWS-FLI1; EWS-FLI1 versus p53,greatest differential effect
same,IC50,"EWS-FLI1; read-out: IC50 EWS-FLI1, disruption of recombinant EWS-FLI1 binding to DNA",0.045 µM
same,"Binding of EWS-FLI1 to the NR0B1 promoter, fold enrichment over IgG control",[2],4 fold
same,Effect on RPS26 or TP53 loci in ChIP,RPS26 and TP53 loci,did not affect
